Test results: paper PMC10920834, “Synthesis, anticancer activity, and molecular docking of half-sandwich iron(II) cyclopentadienyl complexes with maleimide and phosphine or phosphite ligands” (Scientific Reports, 2024)

Columns and labels:
Type in all cases: cell-based, human
HL-60 cells = experiment: Cell viability resazurin assay, HL-60 cells; settings: for viability of HL-60 cells relative to control: ± SD
Method: (§1) The A549 (human non-small cell lung cancer) cell line was obtained from the American Type Culture Collection (ATCC) and cultured in Dulbecco's Modified Eagle Medium (DMEM) with 10% fetal bovine serum (FBS), 2 mM L-Glutamine, 25 mM HEPES and penicillin/streptomycin solution (100 U/ml and 100 µg/ml, respectively). The HL-60 (human promyelocytic leukemia) cell line was also obtained from the American Type Culture Collection (ATCC) and cultured in Iscove’s Modified Dulbecco's Medium (IMDM) with 15% fetal bovine serum (FBS), 2 mM L-Glutamine, 25 mM HEPES and penicillin/streptomycin solution (100 U/ml and 100 µg/ml, respectively). Both cell lines were cultured in flasks at 37 °C in 5% CO2 and sub-cultured every 2–3 days to maintain exponential growth.
(§2) Firstly, resazurin salt powder was dissolved in sterile 1 × PBS. Cells were then seeded on the 96-well plates in the count of 1 × 10^4 in the case of HL-60 cells and of 5 × 10^4 for PBM cells and of 5 × 10^3 for A549 cells per well. A549 cells were seeded 24 h prior to treatment with the complexes to allow cell adherence to 96-well plate. Iron(II) complexes were added to wells to obtain final concentrations of 0.5, 1, 2.5, 5, 10, 25, 50, 100 and 250 μM. Subsequently, plates were incubated at 37 °C in 5% CO2 for 2 h and 24 h. After that 10 μl of resazurin salt was added to each well and plates again were incubated in 37 °C in 5% CO2 for 2 h. Finally, fluorescence was measured with microplate reader Synergy HT (Bio-Tek Instruments, USA) using an excitation wavelength of 530/25 and an emission wavelength of 590/35 nm. The effects of iron(II) complexes were calculated as the percentage of control fluorescence. IC50 (half maximal inhibitory concentration) values were calculated using a website algorithm (https://www.aatbio.com/tools/ic50-calculator). All assays were performed in octuplicate.

PBM cells = experiment: Cell viability resazurin assay, PBM cells; settings: for viability of PBM cells relative to control: ± SD
From the text: Peripheral blood mononuclear (PBM) cells were isolated from a leukocyte-buffy coat collected from the blood of healthy, non-smoking donors at the Blood Bank in Lodz, Poland. The study protocol received approval from the Committee for Research on Human Subjects of the University of Lodz (17/KBBN-UŁ/III/2019). The initial step of isolation process involved mixing buffy coats with PBS in a 1:1 ratio. Subsequently, the mixture was centrifuged using a density gradient of Lymphosep (Cytogen, Zgierz, Poland) at 2200 RPM for 20 min, employing the lowest values for acceleration and deceleration. PBM cells were collected and washed three times by centrifugation with 1 × PBS. Following isolation, the cells were suspended in RPMI 1640 medium.
as §2

A549 cells = experiment: Cell viability resazurin assay, A549 cells; settings: for viability of A549 cells relative to control: ± SD
Method: as §1, §2

## O=C1C=CC(=O)[N-]1.[C-]#[O+].[Fe+2].c1cc[cH-]c1.c1ccc(OP(Oc2ccccc2)Oc2ccccc2)cc1 [3b, CpFe(CO)(P(OPh)3)(η^1-N-maleimidato)]
HL-60 cells; 2 h incubation, 0.5 µM
  viability of HL-60 cells relative to control: 108.58 ± 5.93%
HL-60 cells; 2 h incubation, 1 µM
  viability of HL-60 cells relative to control: 105.27 ± 5.97%
HL-60 cells; 2 h incubation, 2.5 µM
  viability of HL-60 cells relative to control: 111.13 ± 4.29%
HL-60 cells; 2 h incubation, 5 µM
  viability of HL-60 cells relative to control: 116.45 ± 4.31%
HL-60 cells; 2 h incubation, 10 µM
  viability of HL-60 cells relative to control: 125.67 ± 4.5%
HL-60 cells; 2 h incubation, 25 µM
  viability of HL-60 cells relative to control: 140.68 ± 7.01%
HL-60 cells; 2 h incubation, 50 µM
  viability of HL-60 cells relative to control: 116.21 ± 2.09%
HL-60 cells; 2 h incubation, 100 µM
  viability of HL-60 cells relative to control: 70.87 ± 2.53%
HL-60 cells; 2 h incubation, 250 µM
  viability of HL-60 cells relative to control: 23.24 ± 0.25%
HL-60 cells; 2 h incubation, concentration not given
  HL-60 cell viability, sharp increase up to: approximately 140%
HL-60 cells; 24 h incubation
  IC50: 9.09 µM
HL-60 cells; 24 h incubation, 0.5 µM
  viability of HL-60 cells relative to control: 101.68 ± 1.04%
HL-60 cells; 24 h incubation, 1 µM
  viability of HL-60 cells relative to control: 98.91 ± 4.85%
HL-60 cells; 24 h incubation, 2.5 µM
  viability of HL-60 cells relative to control: 91.42 ± 3.16%
HL-60 cells; 24 h incubation, 5 µM
  viability of HL-60 cells relative to control: 72.37 ± 3.19%
HL-60 cells; 24 h incubation, 10 µM
  viability of HL-60 cells relative to control: 49.27 ± 1.71%
HL-60 cells; 24 h incubation, 25 µM
  viability of HL-60 cells relative to control: 3.18 ± 0.36%
HL-60 cells; 24 h incubation, 50 µM
  viability of HL-60 cells relative to control: 0.99 ± 0.02%
HL-60 cells; 24 h incubation, 100 µM
  viability of HL-60 cells relative to control: 0.96 ± 0.1%
HL-60 cells; 24 h incubation, 250 µM
  viability of HL-60 cells relative to control: 0.94 ± 0.06%
PBM cells; 2 h incubation, 0.5 µM
  viability of PBM cells relative to control: 98.5 ± 2.18%
PBM cells; 2 h incubation, 1 µM
  viability of PBM cells relative to control: 99.88 ± 2.57%
PBM cells; 2 h incubation, 2.5 µM
  viability of PBM cells relative to control: 97.35 ± 5.51%
PBM cells; 2 h incubation, 5 µM
  viability of PBM cells relative to control: 100.32 ± 3.02%
PBM cells; 2 h incubation, 10 µM
  viability of PBM cells relative to control: 99.06 ± 3.6%
PBM cells; 2 h incubation, 25 µM
  viability of PBM cells relative to control: 98.42 ± 1.87%
PBM cells; 2 h incubation, 50 µM
  viability of PBM cells relative to control: 100.03 ± 0.88%
PBM cells; 2 h incubation, 100 µM
  viability of PBM cells relative to control: 98.48 ± 0.54%
PBM cells; 2 h incubation, 250 µM
  viability of PBM cells relative to control: 99.51 ± 1.24%
PBM cells; 24 h incubation
  IC50: 5.8 µM
PBM cells; 24 h incubation, 0.5 µM
  viability of PBM cells relative to control: 97.8 ± 2.01%
PBM cells; 24 h incubation, 1 µM
  viability of PBM cells relative to control: 98.46 ± 7.18%
PBM cells; 24 h incubation, 2.5 µM
  viability of PBM cells relative to control: 94.41 ± 2.27%
PBM cells; 24 h incubation, 5 µM
  viability of PBM cells relative to control: 52.91 ± 0.63%
PBM cells; 24 h incubation, 10 µM
  viability of PBM cells relative to control: 49.35 ± 1.94%
PBM cells; 24 h incubation, 25 µM
  viability of PBM cells relative to control: 31 ± 1.1%
PBM cells; 24 h incubation, 50 µM
  viability of PBM cells relative to control: 28.33 ± 2.17%
PBM cells; 24 h incubation, 100 µM
  viability of PBM cells relative to control: 16.65 ± 0.55%
PBM cells; 24 h incubation, 250 µM
  viability of PBM cells relative to control: 13.82 ± 0.52%
A549 cells; 2 h incubation, 0.5 µM
  viability of A549 cells relative to control: 94.42 ± 12.46%
A549 cells; 2 h incubation, 1 µM
  viability of A549 cells relative to control: 97.15 ± 8.30%
A549 cells; 2 h incubation, 2.5 µM
  viability of A549 cells relative to control: 96.59 ± 9.16%
A549 cells; 2 h incubation, 5 µM
  viability of A549 cells relative to control: 90.46 ± 7.14%
A549 cells; 2 h incubation, 10 µM
  viability of A549 cells relative to control: 93.75 ± 11.55%
A549 cells; 2 h incubation, 25 µM
  viability of A549 cells relative to control: 97.77 ± 7.39%
A549 cells; 2 h incubation, 50 µM
  viability of A549 cells relative to control: 104.82 ± 7.84%
A549 cells; 2 h incubation, 100 µM
  viability of A549 cells relative to control: 97.69 ± 11.65%
A549 cells; 2 h incubation, 250 µM
  viability of A549 cells relative to control: 97.95 ± 13.58%
A549 cells; 24 h incubation
  IC50: 19.2 µM
A549 cells; 24 h incubation, 0.5 µM
  viability of A549 cells relative to control: 91.38 ± 8.55%
A549 cells; 24 h incubation, 1 µM
  viability of A549 cells relative to control: 92.49 ± 11.20%
A549 cells; 24 h incubation, 2.5 µM
  viability of A549 cells relative to control: 78.64 ± 6.01%
A549 cells; 24 h incubation, 5 µM
  viability of A549 cells relative to control: 80.46 ± 7.49%
A549 cells; 24 h incubation, 10 µM
  viability of A549 cells relative to control: 80.04 ± 11.40%
A549 cells; 24 h incubation, 25 µM
  viability of A549 cells relative to control: 25.66 ± 3.11%
A549 cells; 24 h incubation, 50 µM
  viability of A549 cells relative to control: 22.34 ± 2.60%
A549 cells; 24 h incubation, 100 µM
  viability of A549 cells relative to control: 42.71 ± 5.87%
A549 cells; 24 h incubation, 250 µM
  viability of A549 cells relative to control: 28.61 ± 5.09%
